Consider one cell line from the supplement of paper PMC10307832.

What all share (assay): relative viability (nuclei count vs DMSO), 5 days (fraction); higher = more cells survive
Compound in assay [1]: C[As](C)SC[C@H](NC(=O)CC[C@H](N)C(=O)O)C(=O)NCC(=O)O [Darinaparsin] + Cc1cc(Nc2cc(N3CCN(C)CC3)nc(Sc3ccc(NC(=O)C4CC4)cc3)n2)n[nH]1 [Tozasertib] (partner 0.1 µM)
In a few lines:
(§1)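 Relative viability divides the nuclei count in treated wells by that in vehicle wells. Lung cancer cell lines were seeded in 1536-well plates, dosed by pin tool the next day, and fixed and stained after 5 days in one step with final 0.05% Triton X-100, 1% formaldehyde and 1 ug/ml Hoechst. Dosing was a single drug or a fixed anchor-drug dose plus five library-drug doses (not always all listed) in √10 steps, and values are medians of duplicate plates imaged at 4×.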

Compound in the assay “AZ628 + Olaparib”: CC1=C(C=C(C=C1)NC(=O)C2=CC(=CC=C2)C(C)(C)C#N)NC3=CC4=C(C=C3)N=CN(C4=O)C [AZ628] + O=C(c1cc(Cc2n[nH]c(=O)c3ccccc23)ccc1F)N1CCN(C(=O)C2CC2)CC1 [Olaparib] (partner 8 µM)
Put shortly:
as §1

Compound in the assay “Darinaparsin + Dasatinib”: C[As](C)SC[C@H](NC(=O)CC[C@H](N)C(=O)O)C(=O)NCC(=O)O [Darinaparsin] + Cc1nc(Nc2ncc(C(=O)Nc3c(C)cccc3Cl)s2)cc(N2CCN(CCO)CC2)n1 [Dasatinib] (partner 0.075 µM)
Put shortly: as §1

Compound in assay [2]: C[As](C)SC[C@H](NC(=O)CC[C@H](N)C(=O)O)C(=O)NCC(=O)O [Darinaparsin] + C[C@@H](Oc1cc(-c2cnn(C3CCNCC3)c2)cnc1N)c1c(Cl)ccc(F)c1Cl [Crizotinib] (partner 1 µM)
Put shortly: as §1

As to LCLC-97TM1, the relative viability was found to be 0.215 in assay [1] (first compound 0.08 µM); 0.199 in assay [1] (first compound 0.8 µM); 0.194 in assay [1] (first compound 2.53 µM); 0.197 in assay [1] (first compound 8 µM); 0.517 with AZ628 + Olaparib (first compound 0.08 µM); 0.371 in the assay with AZ628 + Olaparib (first compound 0.253 µM). The relative viability with AZ628 + Olaparib (first compound 0.8 µM) worked out at 0.356; with AZ628 + Olaparib (first compound 2.53 µM), 0.289; with AZ628 + Olaparib (first compound 8 µM), 0.202; with Darinaparsin + Dasatinib (first compound 0.08 µM), 0.922; with Darinaparsin + Dasatinib (first compound 0.8 µM) it was 0.664; with Darinaparsin + Dasatinib (first compound 2.53 µM), 0.615. Further, the relative viability with Darinaparsin + Dasatinib (first compound 8 µM) was determined as 0.98; in assay [2] (first compound 0.08 µM), 0.517; in assay [2] (first compound 0.8 µM), 0.354; in assay [2] (first compound 2.53 µM), 0.271; in assay [2] (first compound 8 µM), 0.372.
